Experimental data taken from patent publication US8859777B2, “4-fluoro-4-arylpiperdin-1-yl derivatives as mu opioid function moderators” (priority 2010, dated 2014).
Counter-ions that a name gives are not always drawn. Like-named read-outs stand apart in the source and are kept apart here.

Molecular target: T1, Mu opioid receptor (Homo sapiens, UniProt P35372)
T1 construct: expressed in transfected cells; host or cells: HEK-293
Experiment: Affinity for the Mu opioid receptor, [3H]diprenorphine radioligand binding
Experimental: Compounds of the invention were assayed for affinity for the Mu opioid receptor using the methodology described in Zhang et al. (J. Pharmacol. Exp. Ther., (1998) 286: 136-141). Compounds were assessed in human recombinant (HEK-293) cells using tritium labeled diprenorphine (0.4 nM) as the specific determinant and non-specific binding was assayed with naltrexone (1 μM). Cells were incubated for 120 minutes at 22° C. before isolation and radioactivity determination by scintillation counting. The IC50 values (concentration causing a half-maximal inhibition of control specific binding) and Hill coefficients (nH) were determined by non-linear regression analysis of the competition curves generated with mean replicate values using Hill equation curve fitting (Y=D+[(A−D)/(1+(C/C50)^nH)], where Y=specific binding, D=minimum specific binding, A=maximum specific binding, C=compound concentration, C50=IC50, and nH=slope factor). The inhibition constants (Ki) were calculated using the Cheng-Prusoff equation (Ki=IC50/(1+(L/KD)), where L=concentration of radioligand in the assay, and KD=affinity of the radioligand for the receptor). Each data point was obtained in duplicate and results are the mean value.

[1] = human recombinant (HEK-293) cells, tritium labeled diprenorphine 0.4 nM, non-specific binding with naltrexone 1 μM, 120 minutes at 22° C., mean of duplicates, read-out: Affinity

T1 sequence (P35372 whole entry): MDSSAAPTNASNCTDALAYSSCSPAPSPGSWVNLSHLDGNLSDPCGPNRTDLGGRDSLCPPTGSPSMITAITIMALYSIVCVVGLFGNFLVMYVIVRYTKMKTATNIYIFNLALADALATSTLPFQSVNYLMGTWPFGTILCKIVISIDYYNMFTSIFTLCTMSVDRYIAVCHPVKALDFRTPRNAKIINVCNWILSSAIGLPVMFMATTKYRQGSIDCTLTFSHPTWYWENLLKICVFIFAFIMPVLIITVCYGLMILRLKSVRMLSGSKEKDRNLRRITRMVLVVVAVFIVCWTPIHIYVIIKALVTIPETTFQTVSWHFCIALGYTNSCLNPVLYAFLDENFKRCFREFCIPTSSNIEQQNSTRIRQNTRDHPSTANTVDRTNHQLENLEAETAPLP

| Structure (SMILES) | Ki [1] [nM] | Ki [nM] |
| --- | --- | --- |
| FC1(c2ccc(Cl)cc2)CCN(CCC(c2ccccc2)c2ccccc2)CC1 [Example 1, 4-(4-Chlorophenyl)-1-(3,3-diphenylpropyl)-4-fluoropiperidine Hydrochloride] | 1000 to 10000 | – |
| O=C(O)C(Cc1ccccc1)(Cc1ccccc1)CN1CCC(F)(c2ccc(Cl)cc2)CC1 [Example 5, 2,2-Dibenzyl-3-[4-(4-chlorophenyl)-4-fluoropiperidin-1-yl]propionic acid Hydrochloride] | 1000 to 10000 | – |
| CC(C)(C)NC(=O)Nc1cccc(C2(F)CCN(CCOc3ccccc3)CC2)c1 [Example 19, 1-tert-Butyl-3-{3-[4-fluoro-1-(2-phenoxyethyl)-piperidin-4-yl]phenyl}-urea] | 1000 to 10000 | – |
| Oc1cccc(C2(F)CCN(CCCC3CCCCC3)CC2)c1 [Example 11, 1-(3-Cyclohexylpropyl)-4-fluoro-4-(3-hydroxyphenyl)piperidine Hydrochloride] | – | < 100 |
| CC1CN(CCOc2ccccc2)CCC1(F)c1cccc(O)c1 (centres unmarked) [Example 13, 4-fluoro-4-(3-Hydroxyphenyl)-3-methyl-1-(2-phenoxyethyl)piperidine Hydrochloride] | – | < 100 |
| CS(=O)(=O)Nc1cccc(C2(F)CCN(CCOc3ccccc3)CC2)c1 [Example 18, N-{3-[4-Fluoro-1-(2-phenoxyethyl)piperidin-4-yl]phenyl}methane-sulfonamide Hydrochloride] | 1000 to 10000 | – |
| Cc1ccc(S(=O)(=O)Nc2cccc(C3(F)CCN(CCOc4ccccc4)CC3)c2)cc1 [Example 17, N-{3-[4-Fluoro-1-(2-phenoxyethyl)piperidin-4-yl]phenyl}-4-methyl-benzenesulfonamide Hydrochloride] | – | 100 to 1000 |
| CC1CN(CC(Cc2ccccc2)(Cc2ccccc2)C(=O)O)CCC1(F)c1cccc(O)c1 (centres unmarked) [Example 15, 2,2-Dibenzyl 3-[4-(3-hydroxyphenyl)-4-fluoro-3-methylpiperidin-1-yl]propionic Acid Hydrochloride] | – | < 100 |
